Laboratory results taken from publication PMC7486280 (Journal of medicinal chemistry, 2020).
pIC50, pKd: −log10 of the molar value. One block for each compound: values may come before it. Where a SMILES comes first, the peptide text is derived from it. [ ]: non-standard residue; d: D form. The star is where a group is joined. ξ: configuration not given here. ξαMeP = CC1(C(=O)O)CCCN1; PhAc = O=C(Cc1ccccc1)*

Tests used:
HCT116 cells = experiment: Cell permeability evaluation by MALDI-MS; assay type: cell-based; settings: 100 μM, listed as BM30
NTMT1 [1] = target: T1, NTMT1 (Homo sapiens, UniProt Q9BV86); experiment: Inhibition mechanism, SAHH-coupled fluorescence assay; assay type: biochemical
T1 sequence (Q9BV86 1-223): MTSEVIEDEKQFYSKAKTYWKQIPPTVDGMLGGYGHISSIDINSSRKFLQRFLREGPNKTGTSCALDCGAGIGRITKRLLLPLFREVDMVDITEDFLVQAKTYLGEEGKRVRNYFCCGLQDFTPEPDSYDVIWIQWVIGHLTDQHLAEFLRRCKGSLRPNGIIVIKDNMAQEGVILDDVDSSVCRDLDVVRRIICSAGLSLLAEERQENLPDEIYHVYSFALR

NTMT1 [2] = target: T1, NTMT1; experiment: SAH hydrolase; assay type: biochemical; settings: for fold loss in inhibition compared to 6 (BM30): IC50 ratio vs BM30; for inhibitory activity for NTMT1 (in words): up to 100 μM
[3] = tested on: panel of 41 MTases (NTMT1/2, PKMTs, PRMTs, DNMTs); experiment: Selectivity panel of 41 MTases; assay type: biochemical
PRMT1 = PRMT1 (Homo sapiens, UniProt Q99873); experiment: SAH hydrolase-coupled fluorescence selectivity assay, PRMT1; assay type: biochemical
Chain of PRMT1 (Q99873 whole entry, species assumed): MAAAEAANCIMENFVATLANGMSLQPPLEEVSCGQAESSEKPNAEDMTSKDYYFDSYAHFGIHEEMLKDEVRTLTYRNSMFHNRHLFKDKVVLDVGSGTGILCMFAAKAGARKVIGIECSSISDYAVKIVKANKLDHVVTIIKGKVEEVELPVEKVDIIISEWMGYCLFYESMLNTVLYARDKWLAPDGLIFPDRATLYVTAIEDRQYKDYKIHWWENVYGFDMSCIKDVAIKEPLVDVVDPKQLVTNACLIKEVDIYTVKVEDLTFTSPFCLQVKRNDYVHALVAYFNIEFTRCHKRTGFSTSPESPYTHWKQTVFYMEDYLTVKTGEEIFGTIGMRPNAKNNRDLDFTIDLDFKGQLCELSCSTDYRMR

G9a = target: T2, G9a (Homo sapiens, UniProt Q96KQ7); experiment: SAH hydrolase-coupled fluorescence selectivity assay, G9a; assay type: biochemical
T2 sequence (Q96KQ7 1-1210): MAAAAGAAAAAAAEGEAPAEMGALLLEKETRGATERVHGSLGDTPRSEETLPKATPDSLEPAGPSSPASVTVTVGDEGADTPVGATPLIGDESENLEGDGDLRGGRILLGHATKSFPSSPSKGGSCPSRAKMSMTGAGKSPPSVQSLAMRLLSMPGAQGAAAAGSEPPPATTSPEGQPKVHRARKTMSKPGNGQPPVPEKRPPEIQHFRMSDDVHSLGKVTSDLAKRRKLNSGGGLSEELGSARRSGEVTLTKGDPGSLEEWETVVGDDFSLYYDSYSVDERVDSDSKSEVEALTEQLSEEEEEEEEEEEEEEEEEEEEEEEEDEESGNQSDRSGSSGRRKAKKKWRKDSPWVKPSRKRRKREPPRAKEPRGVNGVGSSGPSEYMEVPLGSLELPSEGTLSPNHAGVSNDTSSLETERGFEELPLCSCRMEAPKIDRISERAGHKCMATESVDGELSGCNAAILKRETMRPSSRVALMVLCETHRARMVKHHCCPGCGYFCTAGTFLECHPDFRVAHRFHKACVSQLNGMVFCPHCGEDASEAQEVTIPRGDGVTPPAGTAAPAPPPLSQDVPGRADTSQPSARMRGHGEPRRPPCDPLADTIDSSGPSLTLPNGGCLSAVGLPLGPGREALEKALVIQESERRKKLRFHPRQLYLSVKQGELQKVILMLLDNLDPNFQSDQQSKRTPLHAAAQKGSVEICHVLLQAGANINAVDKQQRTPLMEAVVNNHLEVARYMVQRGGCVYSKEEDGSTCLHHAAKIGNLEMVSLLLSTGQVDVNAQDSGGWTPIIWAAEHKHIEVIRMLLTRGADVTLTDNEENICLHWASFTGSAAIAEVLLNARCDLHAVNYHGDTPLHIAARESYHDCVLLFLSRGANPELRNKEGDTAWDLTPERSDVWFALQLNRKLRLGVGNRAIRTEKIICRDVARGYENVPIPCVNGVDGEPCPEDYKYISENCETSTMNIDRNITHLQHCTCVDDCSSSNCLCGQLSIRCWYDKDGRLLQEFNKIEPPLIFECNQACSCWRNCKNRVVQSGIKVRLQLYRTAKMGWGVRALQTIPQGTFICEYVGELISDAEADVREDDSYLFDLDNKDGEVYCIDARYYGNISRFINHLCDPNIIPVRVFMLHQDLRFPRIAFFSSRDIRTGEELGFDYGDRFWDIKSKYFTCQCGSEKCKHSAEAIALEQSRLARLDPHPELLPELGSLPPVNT

NTMT1 [4] = target: T1, NTMT1; settings: read-out: Kd for NTMT1; peptide substrate; cited from earlier work

Compound: N=C(N)NCCC[C@H](NC(=O)[C@H](CCCCN)NC(=O)[C@@H]1CCCN1C(=O)Cc1ccc(O)cc1)C(N)=O [Compound 6]
cellular level / penetration by MS detection (HCT116 cells): did not display any | inhibition pattern with respect to peptide substrate RCC1-6 (SPKRIA) (NTMT1 [1]; varying RCC1-6, fixed SAM): competitive | inhibition pattern with respect to cofactor SAM (NTMT1 [1]; varying SAM, fixed RCC1-6): noncompetitive | fold increased activity compared to 5 (NTMT1 [2]; IC50 ratio vs compound 5): approximately 7 fold | inhibition of NTMT1 versus NTMT2 in the panel ([3]; 100 μM): comparable inhibition against both NTMT1 and NTMT2 | inhibition against the remaining 39 MTases ([3]; 100 μM, duplicates): very marginal inhibition | selectivity for NTMT1/2 over other MTases of the panel ([3]; compared to PKMTs, PRMTs and DNMTs): over 100 fold | pIC50 (PRMT1): < 4.00

fold loss in inhibition compared to 6 (BM30) (NTMT1 [2]): 5 fold
Compound: N=C(N)NCCC[C@H](NC(=O)[C@H](CCCCN)NC(=O)[C@@H]1CCCN1C(=O)CCc1ccc(O)cc1)C(N)=O [Compound 10]

fold loss in inhibition compared to parent compound 7 (NTMT1 [2]; IC50 ratio vs compound 7): 3 fold
Compound: N=C(N)NCCC[C@H](NC(=O)[C@H](CCCCN)NC(=O)[C@@H]1CCCN1C(=O)CCc1ccc(N)cc1)C(N)=O [Compound 11]

inhibitory activity for NTMT1 (in words) (NTMT1 [2]): did not show any inhibitory activity
Compound: N=C(N)NCCC[C@H](NC(=O)[C@H](CCCCN)NC(=O)[C@@H]1CCCN1CCc1ccc(O)cc1)C(N)=O [Compound 12]

inhibitory activity for NTMT1 (in words) (NTMT1 [2]): completely lost the inhibitory activity
Compound: CC1(C(=O)N[C@@H](CCCCN)C(=O)N[C@@H](CCCNC(=N)N)C(N)=O)CCCN1C(=O)Cc1ccccc1 (stereo partly drawn) [Compound 13] (PhAc-[ξαMeP]-Lys-Arg-NH2)

inhibitory activity for NTMT1 (in words) (NTMT1 [2]): did not exhibit any inhibitory activity
Compound: N=C(N)NCCC[C@H](NC(=O)[C@H](CCCCN)NC(=O)c1cccc(NC(=O)Cc2ccc(O)cc2)c1)C(N)=O [Compound 14]

inhibitory activity for NTMT1 (in words) (NTMT1 [2]): did not exhibit any inhibitory activity
Compound: N=C(N)NCCC[C@H](NC(=O)[C@H](CCCCN)NC(=O)c1ccccc1NC(=O)Cc1ccc(O)cc1)C(N)=O [Compound 15]

Compound: NCCCC[C@H](NC(=O)[C@H](CCCCN)NC(=O)[C@@H]1CCCN1C(=O)Cc1ccc(O)cc1)C(N)=O [Compound 17]
inhibitory activity for NTMT1 (in words) (NTMT1 [2]): negligible difference in inhibition compared to BM30

fold loss in inhibition compared to 6 (BM30) (NTMT1 [2]): 5 fold
Compound: C[C@@H](O)[C@H](NC(=O)[C@H](CCCCN)NC(=O)[C@@H]1CCCN1C(=O)Cc1ccc(O)cc1)C(N)=O [Compound 18]

fold loss in inhibition compared to 6 (BM30) (NTMT1 [2]): 5 fold
Compound: C[C@H](NC(=O)[C@H](CCCCN)NC(=O)[C@@H]1CCCN1C(=O)Cc1ccc(O)cc1)C(N)=O [Compound 19]

fold loss in inhibition compared to 6 (BM30) (NTMT1 [2]): ~14 fold
Compound: NCCCC[C@H](NC(=O)[C@@H]1CCCN1C(=O)Cc1ccc(O)cc1)C(=O)NCC(N)=O [Compound 20]

fold loss in inhibition compared to 6 (BM30) (NTMT1 [2]): 18 fold
Compound: NCCCC[C@H](NC(=O)[C@@H]1CCCN1C(=O)Cc1ccc(O)cc1)C(N)=O [Compound 21]

inhibition for G9a (in words) (G9a): exhibited inhibition
Compound: N=C(N)NCCC[C@@H](NC(=O)[C@H](CCCCN)NC(=O)[C@@H]1CCCN1C(=O)Cc1ccc(O)cc1)C(N)=O [Compound 22]

Compound: YPKRIA
pKd (NTMT1 [4]): 7.00
